Here are results for four molecules from paper PMC8911579, “(−)-Naringenin 4′,7-dimethyl Ether Isolated from Nardostachys jatamansi Relieves Pain through Inhibition of Multiple Channels” (Molecules, 2022).

The subject of one assay is pro-inflammatory factors. More on the design: method as in PMID 30193010. The note with it: compared to other naringenin derivatives; cited from earlier work.
Assay [1] deals with endocannabinoid receptors. The arrangement: method as in PMID 25686780. Particulars: radioligand binding; cited from earlier work.
The next assay concerns opioid receptors. The arrangement: method as in PMID 25686780. Particulars: radioligand binding; cited from earlier work.
For the next assay, the system named is pain. The arrangement: method as in PMID 30193010. The note with it: in vivo; cited from earlier work.
For the next assay, the target named is T1, TRPA1 channels (Homo sapiens, UniProt O75762).
T1 construct: expressed in transfected cells
T1 sequence (O75762 whole entry): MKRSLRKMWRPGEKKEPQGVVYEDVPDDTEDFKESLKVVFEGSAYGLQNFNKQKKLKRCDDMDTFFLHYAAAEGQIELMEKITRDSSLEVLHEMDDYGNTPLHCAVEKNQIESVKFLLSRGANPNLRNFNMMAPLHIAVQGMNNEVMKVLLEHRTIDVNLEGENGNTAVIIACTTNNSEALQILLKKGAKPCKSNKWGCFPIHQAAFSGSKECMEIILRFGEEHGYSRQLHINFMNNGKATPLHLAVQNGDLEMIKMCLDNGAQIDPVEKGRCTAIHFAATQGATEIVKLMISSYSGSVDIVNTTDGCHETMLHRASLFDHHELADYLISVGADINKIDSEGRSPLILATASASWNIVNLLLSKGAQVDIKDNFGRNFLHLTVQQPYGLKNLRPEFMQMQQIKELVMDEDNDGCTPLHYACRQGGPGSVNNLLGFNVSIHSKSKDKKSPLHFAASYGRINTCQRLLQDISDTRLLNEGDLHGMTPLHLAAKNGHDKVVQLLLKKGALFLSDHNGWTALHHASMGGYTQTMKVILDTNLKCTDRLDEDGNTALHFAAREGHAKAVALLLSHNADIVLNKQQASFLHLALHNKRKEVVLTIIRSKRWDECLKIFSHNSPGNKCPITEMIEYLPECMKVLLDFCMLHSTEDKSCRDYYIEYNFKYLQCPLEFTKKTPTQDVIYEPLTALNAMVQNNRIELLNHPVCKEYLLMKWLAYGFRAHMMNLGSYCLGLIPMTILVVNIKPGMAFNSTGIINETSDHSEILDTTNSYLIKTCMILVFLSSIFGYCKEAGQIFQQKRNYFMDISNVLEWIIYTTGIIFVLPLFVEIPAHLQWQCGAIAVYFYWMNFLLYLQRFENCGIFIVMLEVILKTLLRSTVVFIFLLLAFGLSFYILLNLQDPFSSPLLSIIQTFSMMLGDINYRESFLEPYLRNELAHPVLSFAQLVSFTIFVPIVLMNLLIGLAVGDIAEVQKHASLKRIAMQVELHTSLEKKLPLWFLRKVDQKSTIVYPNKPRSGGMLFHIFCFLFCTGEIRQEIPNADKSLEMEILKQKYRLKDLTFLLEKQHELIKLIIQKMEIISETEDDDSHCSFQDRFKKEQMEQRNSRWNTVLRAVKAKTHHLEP
As to the kind of experiment: whole-cell patch-clamp, TRPA1 stably expressed in HEK293 cells. The assay is classed as cell-based. In general terms: In patch-clamp work, channel activity is measured electrically.

The test system of assay [2] is Nav channels and Kv channels in cortical neurons. The arrangement: method as in PMID 34747100. Particulars: cited from earlier work.
A further assay deals with sleep. More on the design: method as in PMID 34747100. The note with it: extracted from peanut stem and leaf; cited from earlier work.

Take `COc1ccc([C@@H]2CC(=O)c3c(O)cc(OC)cc3O2)cc1` [(+)-NRG-DM, (+)-naringenin 4′,7-dimethyl ether]: the “production and release of pro-inflammatory factors” value with pro-inflammatory factors was “did not influence the production and release of pro-inflammatory factors”. Moreover, the affinity result (in assay [1]; with opioid receptors) was “does not show affinity” each time. In the assay with pain, the analgesic activity result is reported as “showed analgesic activity”.

`C=CCN=C=S` [AITC, allyl isothiocyanate]: the “effect on TRPA1 currents” value at TRPA1 channels (10 µM, TRPA1 channel activator) is reported as “induced”.

Turning to `CC(C)c1ccc(NC(=O)Cn2cnc3c2c(=O)n(C)c(=O)n3C)cc1` [HC030031], the “effect on TRPA1 currents” value on TRPA1 channels (30 µM, TRPA1 channel inhibitor) is “inhibited”.

On to `COc1ccc([C@@H]2CC(=O)c3c(O)cc(OC)cc3O2)cc1` [NRG-DM], for which the “inhibitory activity on Nav channels versus Kv channels” value in assay [2] is “more potent than that on Kv channels”. The sleep entry in the assay with sleep is “promoted sleep”.
